Assays:
Assay type in all cases: functional
[1] = test system: Bacillus; assay: Antibacterial activity against Bacillus acidilatici MCCB 44102 at 100 ug/ml after 24 hrs by paper-disk method
[2] = test system: Pseudomonas aeruginosa; assay: Antibacterial activity against Bacillus aeruginosus MCCB 10104 at 100 ug/ml after 24 hrs by paper-disk method
[3] = test system: Bacillus subtilis; assay: Antibacterial activity against Bacillus subtilis MCCB 26501 at 100 ug/ml after 24 hrs by paper-disk method

Question: With C=C([C@@H](C[C@H](O)C(C)(C)OC)OC(=O)/C(C)=C\C)[C@@H]1C[C@@H](Cl)[C@](C)(O)[C@H](OC(C)=O)[C@@H]1OC(=O)/C(C)=C\C as the molecule, how does the Activity [1] read?
Answer: 10 mm

Question: And the Activity [2]?
Answer: <9 mm

Question: What about the Activity [3] of the same molecule?
Answer: 13 mm

Question: What does the source list for O=C(N[C@H](CO)[C@H](O)c1ccc([N+](=O)[O-])cc1)C(Cl)Cl [CHLORAMPHENICOL]?
Answer: Activity [1]: 13 mm; Activity [2]: 13 mm; Activity [3]: 13 mm
